What all share (assay type): biochemical
One assay has as its target T1, Itk (Homo sapiens, UniProt Q08881).
T1 sequence (Q08881 1-620): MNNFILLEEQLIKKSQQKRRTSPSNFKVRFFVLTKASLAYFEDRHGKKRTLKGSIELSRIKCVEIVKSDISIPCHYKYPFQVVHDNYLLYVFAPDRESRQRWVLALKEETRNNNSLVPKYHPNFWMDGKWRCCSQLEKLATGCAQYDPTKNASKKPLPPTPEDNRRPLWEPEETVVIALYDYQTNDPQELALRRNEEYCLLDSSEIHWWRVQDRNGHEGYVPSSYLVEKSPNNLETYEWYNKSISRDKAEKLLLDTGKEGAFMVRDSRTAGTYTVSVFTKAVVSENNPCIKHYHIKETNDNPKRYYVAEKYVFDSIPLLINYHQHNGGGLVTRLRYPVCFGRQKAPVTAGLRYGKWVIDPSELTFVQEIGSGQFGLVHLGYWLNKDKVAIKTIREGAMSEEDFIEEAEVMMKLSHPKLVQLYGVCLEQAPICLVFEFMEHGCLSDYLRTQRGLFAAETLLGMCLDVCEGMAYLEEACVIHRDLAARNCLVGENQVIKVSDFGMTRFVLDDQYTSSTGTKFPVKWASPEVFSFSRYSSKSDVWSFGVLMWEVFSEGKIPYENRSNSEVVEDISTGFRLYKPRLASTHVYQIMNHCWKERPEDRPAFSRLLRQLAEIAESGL
As to the kind of experiment: Itk inhibition assay, coupled enzyme. As to conditions: average Ki if more than one determined. The protocol:
Compounds were screened for their ability to inhibit Itk using a standard coupled enzyme assay (Fox et al., Protein Sci., (1998) 7, 2249). Assays were carried out in a mixture of 20 mM MOPS (pH 7.0), 10 mM MgCl2, 0.1% BSA, 1 mM DTT, 2.5 mM phosphoenolpyruvate, 300 μM NADH, 30 μg/ml pyruvate kinase and 10 μg/ml lactate dehydrogenase. Final substrate concentrations in the assay were 100 μM ATP (Sigma Chemicals) and 3 μM peptide (Biotinylated SAM68 D332-443). Assays were carried out at 25° C. and in the presence of 100 nM Itk.
An assay stock buffer solution was prepared containing all of the reagents listed above, with the exception of ATP and the test compound of interest. 60 μl of the stock solution was placed in a 96 well plate followed by addition of 2 μl of DMSO stock containing serial dilutions of the test compound (typically starting from a final concentration of 15 μM). The plate was preincubated for 10 minutes at 25° C. and the reaction initiated by addition of 5 μl of ATP. Initial reaction rates were determined with a Molecular Devices SpectraMax Plus plate reader over a 10 minute time course. IC50 and Ki data were calculated from non-linear regression analysis using the Prism software package (GraphPad Prism version 3.0cx for Macintosh, GraphPad Software, San Diego Calif., USA).

For a further assay, the target named is PKA (Homo sapiens, UniProt P17612). The assay is described as follows: PKA inhibition assay, coupled enzyme. The conditions noted are these: average Ki if more than one determined. The method in brief: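 Coupled PK/LDH assay following NADH depletion: 18 nM PKA, 50 μM ATP, 80 μM Kemptide in 100 mM HEPES pH 7.5, 10 mM MgCl2, 25 mM NaCl, 1 mM DTT, 3% DMSO, at 30 °C. Compound preincubated 10 min before ATP start; initial rates over 15 min, IC50 and Ki by non-linear regression.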

A further assay concerns the target ROCK (Homo sapiens, UniProt Q13464). The assay is described as follows: ROCK radioactive assay ("33P"). The conditions noted are these: radioactive assay; average Ki if more than one determined; read-out: ROCK 33P Ki. From the text:
(§1) If more than one value of Ki has been determined, the average Ki is indicated. If no value is indicated, then the Ki was not determined.

The target of a further assay is ROCK I (AA 6-553) (Homo sapiens, UniProt Q13464). The assay is described as follows: ROCK inhibition assay, coupled enzyme system ("Enzyme"). The conditions noted are these: enzyme-linked assay; average Ki if more than one determined. The protocol: Reactions were carried out in a solution containing 100 mM HEPES (pH 7.5), 10 mM MgCl2, 25 mM NaCl, 2 mM DTT and 1.5% DMSO.
as §1

Structures are written as SMILES.

Chain of ROCK I (AA 6-553) (Q13464 6-553, species assumed): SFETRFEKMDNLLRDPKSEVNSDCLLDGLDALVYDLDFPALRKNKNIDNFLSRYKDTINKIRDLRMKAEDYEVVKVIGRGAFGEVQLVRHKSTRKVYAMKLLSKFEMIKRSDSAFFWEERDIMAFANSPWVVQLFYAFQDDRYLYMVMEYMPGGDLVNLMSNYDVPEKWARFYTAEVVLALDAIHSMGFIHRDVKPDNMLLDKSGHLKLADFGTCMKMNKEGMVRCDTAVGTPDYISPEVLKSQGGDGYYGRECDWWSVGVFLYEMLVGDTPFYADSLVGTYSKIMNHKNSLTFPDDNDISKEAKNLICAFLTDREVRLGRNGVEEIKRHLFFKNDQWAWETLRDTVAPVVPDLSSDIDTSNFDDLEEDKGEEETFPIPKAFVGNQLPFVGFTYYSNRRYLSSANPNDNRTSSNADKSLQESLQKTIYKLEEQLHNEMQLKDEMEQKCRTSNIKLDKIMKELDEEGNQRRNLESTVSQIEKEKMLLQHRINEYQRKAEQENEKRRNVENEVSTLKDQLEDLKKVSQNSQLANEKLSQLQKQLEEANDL
Chain of ROCK (Q13464 whole entry): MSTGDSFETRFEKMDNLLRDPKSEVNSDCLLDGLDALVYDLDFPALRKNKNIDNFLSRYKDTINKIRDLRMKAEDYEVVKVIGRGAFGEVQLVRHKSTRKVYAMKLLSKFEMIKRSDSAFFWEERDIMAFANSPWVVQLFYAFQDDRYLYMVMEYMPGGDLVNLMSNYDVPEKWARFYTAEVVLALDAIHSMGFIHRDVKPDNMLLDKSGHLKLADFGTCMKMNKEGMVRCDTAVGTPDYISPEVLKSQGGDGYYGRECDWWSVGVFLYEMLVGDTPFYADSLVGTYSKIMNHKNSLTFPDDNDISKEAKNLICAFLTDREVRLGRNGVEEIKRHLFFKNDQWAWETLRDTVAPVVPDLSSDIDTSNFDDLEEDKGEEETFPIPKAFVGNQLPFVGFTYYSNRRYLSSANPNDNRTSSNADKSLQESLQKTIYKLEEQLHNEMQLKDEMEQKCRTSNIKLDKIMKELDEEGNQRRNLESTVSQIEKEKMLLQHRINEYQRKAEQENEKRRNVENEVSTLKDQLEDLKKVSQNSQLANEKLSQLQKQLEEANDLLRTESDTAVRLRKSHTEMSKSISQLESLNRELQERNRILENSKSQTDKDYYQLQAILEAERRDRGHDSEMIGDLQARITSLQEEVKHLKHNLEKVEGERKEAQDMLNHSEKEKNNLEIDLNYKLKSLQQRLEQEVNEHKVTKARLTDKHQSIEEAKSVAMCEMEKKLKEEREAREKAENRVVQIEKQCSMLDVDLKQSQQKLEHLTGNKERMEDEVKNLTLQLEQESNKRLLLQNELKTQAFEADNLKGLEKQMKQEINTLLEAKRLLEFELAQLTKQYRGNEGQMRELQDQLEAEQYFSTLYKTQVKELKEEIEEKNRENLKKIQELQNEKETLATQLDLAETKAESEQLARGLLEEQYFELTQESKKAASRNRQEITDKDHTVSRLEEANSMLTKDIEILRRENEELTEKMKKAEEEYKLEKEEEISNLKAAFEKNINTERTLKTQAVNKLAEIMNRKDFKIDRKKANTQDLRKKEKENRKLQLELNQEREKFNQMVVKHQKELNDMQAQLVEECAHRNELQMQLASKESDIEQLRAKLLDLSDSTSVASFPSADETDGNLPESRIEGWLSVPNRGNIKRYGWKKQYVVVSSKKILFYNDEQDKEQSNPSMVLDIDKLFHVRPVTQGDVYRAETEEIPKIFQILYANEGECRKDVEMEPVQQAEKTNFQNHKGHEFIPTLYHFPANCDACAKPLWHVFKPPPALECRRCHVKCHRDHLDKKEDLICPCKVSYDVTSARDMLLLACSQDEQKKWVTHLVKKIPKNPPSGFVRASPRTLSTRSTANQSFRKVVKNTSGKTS

Consider `O=C(Cc1ccccc1)Nc1nc(-c2c[nH]c3ncc(Br)cc23)cs1` [II-79], for which the Ki (in general, a measure of affinity in units of concentration, obtained from inhibition or displacement) is 500 to 5000 nM at Itk, less than 500 nM at PKA, less than 500 nM on ROCK and less than 500 nM on ROCK I (AA 6-553).

Turning to `O=C(Cc1ccc(F)cc1)N(c1nc(-c2c[nH]c3ncccc23)cs1)C1CC1` [II-53], the Ki is 500 to 5000 nM on Itk, less than 500 nM at PKA and less than 500 nM on ROCK I (AA 6-553).

With `O=C(Cc1ccccc1)N(c1nc(-c2c[nH]c3ncccc23)cs1)C1CC1` [I-20], the Ki on Itk is 500 to 5000 nM; on PKA, less than 500 nM; at ROCK I (AA 6-553) it was less than 500 nM.

The record behind these values is patent US7514448B2, “Azaindoles useful as inhibitors of rock and other protein kinases” (Vertex Pharmaceuticals Incorporated, priority 2004, dated 2009).
